Key:
[1] = spontaneous racemization of the hydantoin at a pH above 8; depends on substituent at the 5-position; cited from earlier work
[2] = Activity of DAPDH enzymes for reductive amination of 2-keto acids (NADPH decrease at 340 nm); format: biochemical
Description: The mutant DAPDH enzyme was assayed spectrophotometrically by monitoring the decrease in concentration of NADPH. The typical reductive amination reaction contained the following: 100 mM sodium carbonate/bicarbonate buffer, pH 9.0, 200 mM NH4Cl, 25 mM 2-keto acid, and 0.2 mM NADPH. The decrease in absorbance at 340 nm was monitored and an NADPH extinction coefficient of 6.22 mM^−1cm^−1 was used to correlate absorbance to concentration. Protein concentrations were determined via the Bradford method ^19 using bovine serum albumin as a protein standard.

| Molecule | rate of racemization τ1/2 [1] [h] | activity toward the reductive amination of 2-ketoacids to produce D-amino acids [2] |
| --- | --- | --- |
| O=C1NC(=O)C(c2ccccc2)N1 (centres unmarked) [phenylhydantoin] | 0.3 |  |
| tert-butylhydantoin | 120 |  |
| O=C1NC(=O)C(Cc2ccccc2)N1 (centres unmarked) [benzylhydantoin] | 5 |  |
| CC(C)C1NC(=O)NC1=O (centres unmarked) [isopropylhydantoin] | 56 |  |
| wild-type diaminopimelate dehydrogenase enzyme from Corynebacterium glutamicum: wild-type diaminopimelate dehydrogenase from Corynebacterium glutamicum (ATTC #13032), SEQ ID NO. 2 (protein, listed as Corynebacterium glutamicum) MTNIRVAIVGYGNLGRSVEKLIAKQPDMDLVGIFSRRATLDTKTPVFDVADVDKHADDVDVLFLCMGSATDIPEQAPKFAQFACTVDTYDNHRDIPRHRQVMNEAATAAGNVALVSTGWDPGMFSINRVYAAAVLAEHQQHTFWGPGLSQGHSDALRRIPGVQKAVQYTLPSEDALEKARRGEAGDLTGKQTHKRQCFVVADAADHERIENDIRTMPDYFVGYEVEVNFIDEATFDSEHTGMPHGGHVITTGDTGGFNHTVEYILKLDRNPDFTASSQIAFGRAAHRMKQQGQSGAFTVLEVAPYLLSPENLDDLIARDV |  | little or no activity |
